In patent US8741843B2, “Compositions and methods for inducing angiogenesis” (priority 2006, dated 2014):
“Also recorded” adds a separate entry of the source. Ends that are not written are not given here.

What was measured:
[1] = test system: endothelial cells (HUVEC); assay: Migration of endothelial cells under hypoxia (Chemicon QCM 96-well Migration Assay); type: cell-based, human; details: 5 hours hypoxia, 10 ng/ml
Experimental: FIG. 6 is a graph depicting migration of endothelial cells under hypoxia conditions. Endothelial cells (25,000) were incubated in endothelial cells growth medium free supplements in the migration chamber. ADOPep1 (SEQ ID NO:2), 2 (SEQ ID NO:3) and 3 (SEQ ID NO:4) were added to the feeder tray of the migratory kit at 1, 10 and 100 ng/ml for 5 hours hypoxia. Results were determined by a fluorescence ELISA reader and expressed as increase in percentage migration in Relative fluorescence Units.
FIGS. 26a-b are graphs depicting induction of endothelial cell migration under hypoxia by the ADOPEP motifs. Endothelial cells were incubated for 5 hours under hypoxia conditions in the presence of increasing concentrations of ADOPep1 (red line), peptide motif A (dark blue line), peptide motif B (green line) or peptide motif C (light blue line) and the migration of endothelial cells was detected. FIG. 26a—experiment 1; FIG. 26b—experiment 2.
Endothelial cell migration was evaluated by the Chemicon QCM 96-well Migration Assay (Chemicon International, Calif., USA) according to manufacturer's instructions. This kit utilizes a membrane with an 8 μm pore size. Migratory cells on the bottom of the insert membrane are dissociated from the membrane when incubated with cell detachment buffer provided by the kit. […] For the migration assay, HUVEC from passage 3 were incubated in endothelial cell (EC) growth medium free of supplements. After trypsinization, 25,000 EC were incubated in the migration chamber. ADOPeps were added at concentrations of 1, 10 and 100 ng/ml in the feeder tray for chemoattractant migration assay. Time of incubation was 5 hours for endothelial cells under hypoxic conditions. Results were determined in a Fluorescent ELISA reader at 480/520 nm.

[2] = test system: endothelial cells; assay: Hypoxia-induced apoptosis of endothelial cells (Annexin V FITC/PI FACS); type: cell-based, human; details: 24 hours hypoxia; for effect on hypoxia-induced apoptosis of endothelial cells: peptides 10 ng/ml
Experimental: FIG. 17 is a histogram depicting the effect of ADOPep1 on hypoxia-induced apoptosis of endothelial cells. Endothelial cells were exposed for 24 hours hypoxia in the presence of endothelial cell growth medium supplemented with 5% fetal calf serum (FCS), followed by incubation under hypoxia conditions with ADOPep1 (10 ng/ml) or anti-GRP78 antibody (100 ng/ml). Cells (100,000/tube) were incubated with Annexin-V FITC/PI for endothelial cell apoptosis determination. […] Similarly, anti-GRP78 antibody induced a reduction in apoptosis up to 32%.
FIGS. 24a-d are FACS analyses depicting hypoxia induced apoptosis. Endothelial cells were incubated for 24 hours under hypoxia conditions in the absence (FIG. 24a) or presence of 10 ng/ml of ADOPepe1 (FIG. 24b), peptide of Motif A (FIG. 24c) or peptide of motif C (FIG. 24d) and the level of apoptosis was determined using FACS analysis and the PI (shown on the Y axis)/Annexin V (shown on the X axis) markers.
FIG. 25 is a bar graph depicting the inhibition of hypoxia induced apoptosis by ADOPep 1, Motif A and Motif B. Endothelial cells were incubated for 24 hours under hypoxia conditions in the absence or presence of 10 ng/ml of ADOPepe1, Motif A, Motif B or motif C and the level of apoptosis was determined using FACS analysis and quantified as the percent of Annexin V and PI positive cells. The results represent average±standard deviation of 4 independent experiments.
FIGS. 33a-f are representative FACS analyses depicting a specific inhibition of hypoxia-induced apoptosis of endothelial cells by ADOPep1. Endothelial cells in Petri dishes were incubated for 24 hours with 5% FCS in supplement-free endothelial cell growth medium under normoxia (FIGS. 33a and d), exposed to 24 hours hypoxia (Figures c and f) or incubated under normoxia with 100 micromolar per 100,000 cells CoCl2 (FIGS. 33b and e), in the absence (FIGS. 33a-c) or presence (FIGS. 33d-f) of 10 ng/ml Adopep1 peptide (for 24 hours). Cells were trypsinized and immediately re-suspended in PBS with 5% FCS and 0.1% Na-azide. Samples containing 100,000 cells were tested for apoptosis using the Annexin-FITC (X axis) and propidium iodide (Y axis) kit (Bender Medsystems, Vienna, Austria), according to manufacturer's instructions. Results were analyzed by FACScan (Beckton Dickinson).
EC were incubated for 24 hours with 5% FCS in EC growth media in Petri dishes plates followed by 24 hours incubation under hypoxia conditions with ADOPep1 (10 ng/ml), anti GRP78 antibody (Santa Cruz Biotechnology, Calif., USA) (1 microgram/ml) or recombinant VEGF (10 ng/ml). The Annexin V FITC/PI detects the phosphatidylserin on the apoptotic cells using flow cytometry. Human Annexin V-FITC kit (Bender Medsystems, Vienna, Austria) was used for the measurement of EC apoptosis percentage following manufacturer's instructions. Samples were analyzed using a fluorescence activated cell sorter (FACScan Beckton Dickinson, Calif., USA).

[3] = target: T1, GRP78 on endothelial cells (Homo sapiens, UniProt P11021); assay: FACS competition of peptides with GRP78 polyclonal antibody on endothelial cells under hypoxia; type: binding; details: hypoxic conditions; listed as motif C
T1 construct: endogenous in cells; host or cells: HUVEC / endothelial cells from umbilical cords, under normoxia or hypoxia
Experimental: Endothelial cells were cultured for 24 hours under hypoxic conditions in endothelial cell growth medium. Cells were removed by trypsin and incubated for 1 hour on ice with increasing concentrations of AdoPep1, Motif A and Motif C peptides. GRP78 polyclonal antibody (2 μg/100,000) was added to the cells for 2 hours on ice. Anti-goat FITC (Jackson ImmunoResearch) was added for 30 minutes on ice. IgG1-FITC was used as the isotype control. The samples were analyzed with a FACScan (Beckton Dickinson). […] FIG. 28d depicts the average percent binding of GRP78 to endothelial cells as a function of peptide amount as determined by 2 independent experiments.

[4] = test system: endothelial cells; assay: Inhibition of binding of biotinylated ADOPep1 to endothelial cells by motif peptides; set-up: species or system human; details: normoxia, peptides 0.01, 0.1 or 1 ng/ml, ADOPep1^Biot 2 μg/ml
Experimental: FIG. 23 is a graph depicting the inhibition of binding of ADOPep1^Biot (2 μg/ml) to endothelial cells by specific peptides corresponding to conserved motifs from the ADOPeps. Endothelial cells were incubated for 2 hours under normoxia conditions in the presence of increasing concentrations (0.01, 0.1 or 1 ng/ml) of peptides having the amino acid sequences corresponding to Motif A (HWRRP; SEQ ID NO:7), Motif B (HWRRA; SEQ ID NO:8), Motif C (AHLLP; SEQ ID NO:6) or non-biotinylated ADOPep1 (SEQ ID NO:2) and then were incubated for 1 hour with biotinylated ADOPep1 (2 μg/ml) and the binding of biotinylated ADOPep1 to endothelial cells was determined using HRP-streptavidin.

[5] = target: GRP78 (Homo sapiens, UniProt P11021); assay: Immune precipitation of endothelial cell lysate with biotinylated ADOPep1, PAGE, Western blot, mass spectrometry; type: binding; set-up: immune precipitation of endothelial cells lysate with biotinylated ADOPep1 under normoxia and hypoxia conditions; endogenous in cells; host or cells: HUVEC (lysate); details: normoxia and hypoxia
Experimental: HUVEC were seeded in 90 mm Petri dishes plates for 24 hours with complete Endothelial Cell Growth Medium (PromoCell. Heildelberg, Germany). Cells were washed twice with PBS and buffer lysate (50 mM Tris Cl (pH 8, 150 mM Na Cl, 0.02% Na azide, 0.1% SDS, 100 μg/ml PMSF, 1 μg/ml protease inhibitors, 1% NP-40) was added for 20 minutes on ice. After incubation, cells were scraped with a rubber policeman and transferred to a chilled microfuge tube. After centrifugation of lysate at 12,000 g for 2 minutes at 4° C., supernatant was transferred to a fresh microfuge tube and stored at −70° C.
Aliquots samples of lysates (500 μl) were incubated with 10 μg of biotinylated ADOPep1 for one hour at 4° C. by gently mixing. Streptavidin Sepharose beads (Amersham Biosciences, Uppsla, Sweeden) (50 μl) were added to the sample for a second incubation one hour at 4° C. by gently mixing. After then, sample was centrifuge for 20 seconds at 12,000 g and the pellet was saved and further washed 3 times. Finally the pellet was suspended in 100 μl of sample buffer for Western blot analysis. For ELISA, protein was eluted by 5 minutes incubation of the sample at room temperature in 1 ml of Tris-Glycin 0.2M (pH 2.2), followed by titration with 1M Tris (pH 9.1). […]

[6] = test system: endothelial cells (HUVEC); assay: Binding of biotinylated ADOPep to endothelial cells by FACS; set-up: species or system human; details: 5 micrograms per 100,000 cells
Experimental: FIG. 3 is a FACS analysis depicting the binding (in percentages) of biotinylated ADOPep1 (ADOPep1^Biot), an ADAM15 derived peptide (SEQ ID NO:2), to endothelial cells (EC) under normoxia. Biotinylated ADOPep1 at 0.05, 0.5 and 5 microgram/ml (μg/ml) were added to endothelial cells.
FIG. 4 is a FACS analysis depicting the binding (in total counts) of Biotinylated ADOPep1 to endothelial cells under normoxia and hypoxia conditions. […] X axis—Intensity of binding.
Human umbilical endothelial cells (HUVEC) were harvested by trypsin and 100,000 cells per sample were suspended in PBS+5% FCS+0.1% Na azide. Endothelial cells were either exposed for 5 hours to hypoxia or remained under normoxia conditions. Cells were stained for 2 hours on ice in dark with 0.05, 0.5, 5 μg/100,000 cells biotinylated ADOPeps. The cells were then washed twice with PBS, following which the cells were stained for 30 minutes with FITC-labeled Streptavidin (Jackson ImmunoResearch Laboratories, PA, USA). After washing, samples were analyzed using a fluorescence activated cell sorter (FACScan Beckton Dickinson, Calif., USA).

T1 sequence (P11021 19-654): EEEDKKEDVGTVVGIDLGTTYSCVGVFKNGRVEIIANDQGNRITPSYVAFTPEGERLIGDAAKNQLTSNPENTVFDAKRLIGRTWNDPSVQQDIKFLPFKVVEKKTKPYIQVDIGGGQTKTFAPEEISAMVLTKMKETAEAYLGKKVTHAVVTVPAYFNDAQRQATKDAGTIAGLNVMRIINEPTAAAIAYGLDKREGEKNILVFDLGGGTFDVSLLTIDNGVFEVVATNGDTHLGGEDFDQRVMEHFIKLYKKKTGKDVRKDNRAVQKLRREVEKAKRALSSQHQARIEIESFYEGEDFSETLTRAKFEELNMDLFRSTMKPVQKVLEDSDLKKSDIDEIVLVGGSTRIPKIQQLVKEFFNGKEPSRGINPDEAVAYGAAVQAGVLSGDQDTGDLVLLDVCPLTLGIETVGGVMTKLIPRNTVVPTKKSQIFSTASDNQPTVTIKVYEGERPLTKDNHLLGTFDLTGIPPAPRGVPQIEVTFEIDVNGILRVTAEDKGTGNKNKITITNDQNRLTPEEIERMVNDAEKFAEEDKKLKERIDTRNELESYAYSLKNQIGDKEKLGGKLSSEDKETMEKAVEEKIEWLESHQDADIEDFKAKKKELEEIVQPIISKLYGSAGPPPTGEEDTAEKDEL
GRP78, sequence (P11021 19-654): as above

| Substance | migration of endothelial cells [1] | effect on hypoxia-induced apoptosis of endothelial cells [2] | effect on hypoxia-induced apoptosis of endothelial cells ([2]; listed as motif C) | percent apoptosis (PI/Annexin V) ([2]; FIGS. 24a-d, 10 ng/ml, hypoxia alone 79.3%) [%] | inhibition of anti GRP78 binding to endothelial cells (in words) [3] | inhibition of the binding of ADOPep1^Biot to endothelial cells [4] | protein (receptor) bound by the peptide in endothelial cell lysate [5] | binding to endothelial cells under hypoxia versus normoxia [6] |
| --- | --- | --- | --- | --- | --- | --- | --- | --- |
| AHLLP [Motif C, 5 amino acid motif peptide without HWRR] | no significant effect on endothelial cell migration | no effect on apoptosis | no effect on hypoxia induced apoptosis | 81.1 | did not inhibit anti GRP78 binding | moderate inhibition of binding | – | – |
| HWRRA [Motif B, 5 amino acid motif peptide] | induced endothelial cell migration | capable of inhibiting the hypoxia induced apoptosis; also recorded: significant inhibition of hypoxia induced apoptosis | – | – | – | significant inhibition | – | – |
| biotinylated ADOPep1: biotinylated ADOPep1 (SEQ ID NO:2) (HWRRAHLLPRLP; also: biotinylated) | – | – | – | – | – | – | GRP78 protein | increased under hypoxia |
